# Experimental data: PubChem BioAssay (NCI)
# Where “and” joins values, the source holds several entries; their conditions need not be identical. Equal entries are not always repeated.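 Compound exposure: 48 hours, 5 concentrations, 96-well plates. Abbreviation: GI50, concentration required for 50% inhibition of growth. TGI marks complete inhibition of growth.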
# How the values were obtained:
# Assay in all cases: NCI tumour cell line growth inhibition, 48 h
# DU-145 prostate = system: DU-145 prostate
# HL-60(TB) leukemia = system: HL-60(TB) leukemia
# K-562 leukemia = system: K-562 leukemia
# M14 melanoma = system: M14 melanoma
# NCI-H226 lung = system: NCI-H226 lung
# OVCAR-8 ovarian = system: OVCAR-8 ovarian
# RPMI-8226 leukemia = system: RPMI-8226 leukemia
# SF-295 CNS = system: SF-295 CNS
# SK-MEL-5 melanoma = system: SK-MEL-5 melanoma
# U251 CNS = system: U251 CNS
SMILES,GI50 (DU-145 prostate),TGI (DU-145 prostate),GI50 (HL-60(TB) leukemia) [µM],TGI (HL-60(TB) leukemia),GI50 (K-562 leukemia),TGI (K-562 leukemia),GI50 (M14 melanoma),TGI (M14 melanoma) [µM],GI50 (NCI-H226 lung),TGI (NCI-H226 lung) [µM],GI50 (OVCAR-8 ovarian) [µM],TGI (OVCAR-8 ovarian),GI50 (RPMI-8226 leukemia),TGI (RPMI-8226 leukemia),GI50 (SF-295 CNS) [µM],TGI (SF-295 CNS),GI50 (SK-MEL-5 melanoma),TGI (SK-MEL-5 melanoma) [µM],GI50 (U251 CNS) [µM],TGI (U251 CNS) [µM]
NS(=O)(=O)c1ccc(Nc2cc(-c3ccc(O)c(F)c3)[nH]n2)cc1,> 25 µM,> 25 µM,> 25,> 25 µM,> 25 µM,> 25 µM,15.4 µM,> 25,> 25 µM,> 25,17.8,> 25 µM,> 25 µM,> 25 µM,> 25,> 25 µM,10.7 µM,> 25,16.4,> 25
COc1cccc2c1-c1nc(N)c3c(OC)cccc3c1C2=O,,> 100 µM,,72.5 µM,,> 100 µM,,> 100,,> 100,,> 100 µM,,> 100 µM,,> 100 µM,,> 100,,> 100
C=C1C[C@H]2C=Nc3cc(OCCCOc4cc5c(cc4OC)C(=O)N4CC(=C)C[C@H]4C=N5)c(OC)cc3C(=O)N2C1,0.00496 µM and < 0.0133 µM,24 µM,0.000245,,,3.44 µM,0.00858 µM and < 0.013 µM,0.0846,,0.0482,,> 18.4 µM,0.000136 µM,0.00904 µM and 0.0252 µM,0.00706,0.64 µM,,,,3.3
O=C1NC(=S)S/C1=C\c1cn(-c2ccccc2)nc1-c1ccccc1,12.6 µM,> 100 µM,4.83,59.8 µM,7.54 µM,> 100 µM,6.75 µM,80.2,20.3 µM,76.5,11.4,> 100 µM,2.52 µM,68.6 µM,3.33,17.2 µM,3.19 µM,14.2,5.54,21.2
CC(C)=CCc1cc2c(cc1O)C1=C(C(=O)C3=C(C1=O)S(=O)(=O)CCN3)C(C=C(C)C)O2 (stereo not drawn),0.309 µM,0.597 µM,0.438,1.11 µM,2.24 µM,14.6 µM,0.35 µM,1.2,1.6 µM,5.22,0.552,2.12 µM,3.38 µM,10.1 µM,2.38,5.1 µM,0.284 µM,0.66,1.24,3.74
CC(C)/C=C1\CCC(CN(C)C)C1=O (stereo not drawn),,3.21 µM,,4.55 µM,,7.85 µM,,5.52,,83,,6.97 µM,,2.36 µM,,31.2 µM,,12.4,,32.7
COc1ccc(-c2cc(-c3ccc(Nc4nc(Nc5ccccc5)nc(Nc5ccc(Cl)cc5)n4)cc3)nc(N)n2)cc1,12.1 µM,26.9 µM,2.31,17.9 µM,4.63 µM,16.5 µM,9.33 µM,28.8,12.9 µM,> 50,15.1,> 50 µM,5.15 µM,20.5 µM,7.92,25.8 µM,6.55 µM,20.9,8.41,> 50
COc1cc(/C=C/C(=O)c2cccc(-n3cc(-c4cc(OC)c(OC)c(OC)c4)[nH]c3=O)c2)cc(OC)c1OC,2.98 µM,13.6 µM,0.922,6.39 µM,0.591 µM,> 100 µM,2.12 µM,4.8,14.4 µM,80.3,2.32,8.9 µM,0.238 µM,0.733 µM,4.96,19.5 µM,2.76 µM,9.57,1.23,3.71
CN1CCN(CC(=O)N(C)c2ccc(N=C(c3ccccc3)c3c(O)[nH]c4ccc(C#N)cc34)cc2)CC1,3.9 µM,14.4 µM,1.18,6.36 µM,0.575 µM,11.6 µM,1.51 µM,3.27,3.19 µM,16,4.87,> 100 µM,2.65 µM,6.52 µM,3.14,15.8 µM,1.59 µM,3.16,2.14,6.88
COc1ccc(-c2cc(=O)c3c(O)c(OC)c(OC)c(OC)c3o2)cc1OC,,> 100 µM,,> 100 µM,,> 100 µM,,> 100,,> 100,,> 100 µM,,,,> 100 µM,,> 100,,> 100
CCN(CC)c1ccc(/C=C/C(=O)c2ccc(Nc3nc(Nc4ccccc4)nc(Nc4ccccc4)n3)cc2)cc1,5.04 µM,79.2 µM,18,> 100 µM,,,3.02 µM,> 100,26.9 µM,> 100,9.95,> 100 µM,3.26 µM,> 100 µM,1.41,23.3 µM,1.17 µM,44.9,4.82,> 100
COC1=C(N)C(=O)c2nc(-c3nc(C(=O)O)c(C)c(-c4ccc(OC)c(OC)c4O)c3N)ccc2C1=O,,0.0409 µM and 0.0193 µM,,0.00499 µM and 0.0204 µM,0.0237 µM and 0.0112 µM and < 0.01 µM,0.277 µM and 0.102 µM and 0.0281 µM,,,0.00126 µM and 0.00319 µM,,,0.00226 µM and 0.022 µM and 0.0194 µM,0.00215 µM and 0.00924 µM and < 0.01 µM,0.00647 µM and 0.0298 µM and 0.0225 µM,,0.00323 µM and 0.0236 µM and 0.0136 µM,0.00116 µM and 0.0104 µM,,,
CCOC(=O)CSc1cc(Cl)c(C)cc1S(=O)(=O)/N=C(/N=C/c1ccc([N+](=O)[O-])s1)NNC,7.45 µM,41.2 µM,21.7,53.7 µM,,,23.1 µM,56.8,33.1 µM,75.8,32.7,80.2 µM,36.7 µM,> 100 µM,16.1,47 µM,15.2 µM,29,17,38.7
